The record followed here is patent publication US9150508B2, “Sulfonamide compounds and their use in the modulation retinoid-related orphan receptor” (Glaxo Group Limited, priority 2011, dated 2015).

Assay [1] has as its target T1, Human RORγ Ligand Binding Domain (RORγ-LBD) (Homo sapiens, UniProt P51449).
T1 construct: His6 plus thrombin site) (N); made in house; host or cells: E. coli BL21(DE3), modified pET21a
T1 sequence (P51449 263-518): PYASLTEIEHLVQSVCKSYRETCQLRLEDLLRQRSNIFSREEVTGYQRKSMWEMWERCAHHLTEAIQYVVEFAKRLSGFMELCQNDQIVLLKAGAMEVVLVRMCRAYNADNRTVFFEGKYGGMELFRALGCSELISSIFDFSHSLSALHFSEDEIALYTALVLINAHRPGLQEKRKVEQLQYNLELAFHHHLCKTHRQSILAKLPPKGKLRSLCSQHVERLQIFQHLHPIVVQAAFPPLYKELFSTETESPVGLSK
The experiment in a line: Dual Fluorescence Energy Transfer (FRET) assay: RORγ-LBD / SRC1(2) co-activator peptide interaction. The class given is biochemical. Particulars: RORγ-LBD/SRC1(2) peptide interaction, read-out: mean pIC50 (converted). An excerpt:
Dual Fluorescence Energy Transfer (FRET) Assay
This assay is based on the knowledge that nuclear receptors interact with cofactors (transcription factors) in a ligand dependent manner. RORγ is a typical nuclear receptor in that it has an AF2 domain in the ligand binding domain (LBD) which interacts with co-activators. The sites of interaction have been mapped to the LXXLL (SEQ ID NO:1) motifs in the co-activator SRC1(2) sequences. Short peptide sequences containing the LXXLL (SEQ ID NO:1) motif mimic the behavior of full-length co-activator.
This assay measures ligand-mediated interaction of the co-activator peptide with the purified bacterial-expressed RORγ ligand binding domain (RORγ-LBD) to indirectly assess ligand binding. RORγ has a basal level of interaction with the co-activator SRC1(2) in the absence of ligand, Thus, it is possible to find ligands that inhibit or enhance the RORγ/SRC1(2) interaction.
Human RORγ Ligand Binding Domain (RORγ-LBD) was expressed in E. coli strain BL21(DE3) as an amino-terminal polyhistidine tagged fusion protein. DNA encoding this recombinant protein was sub-cloned into a modified pET21a expression vector (Novagen). A modified polyhistidine tag (MKKHHHHHHLVPRGS) (SEQ ID NO:2)was fused in frame to residues 263-518 of the human RORγ sequence.
Approximately 50 g E. coli cell pellet was resuspended in 300 mL of lysis buffer (30 mM imidazole pH 7.0 and 150 mM NaCl). Cells were lysed by sonication and cell debris was removed by centrifugation for 30 minutes at 20,000 g at 4° C. The cleared supernatant was filtered through a 0.45 uM cellulose acetate membrane filter. The clarified lysate was loaded onto a column (XK-26) packed with ProBond Nickel Chelating resin (InVitrogen), pre-equilibrated with 30 mM imidazole pH 7.0 and 150 mM NaCl. After washing to baseline absorbance with the equilibration buffer, the column was developed with a gradient from 30 to 500 mM imidazole pH 7.0. Column fractions containing the RORγ-LBD protein were pooled and concentrated to a volume of 5 mLs. The concentrated protein was loaded onto a Superdex 200 column pre-equilibrated with 20 mM Tris-Cl pH 7.2 and 200 mM NaCl. The fractions containing the desired RORγ-LBD protein were pooled together.
Purified RORγ-LBD was buffer exchanged by exhaustive dialysis [3 changes of at least 20 volumes (>8000×)] against PBS [100 mM NaPhosphate, pH 8 and 150 mM NaCl]. The concentration of RORγ-LBD was approximately 30 uM in PBS. Five-fold molar excess of NHS-LC-Biotin (Pierce) was added in a minimal volume of PBS. This solution was incubated with occasional gentle mixing for 60 minutes at ambient room temperature. The modified RORγ-LBD was dialyzed against 2 buffer changes—TBS pH 8.0 containing 5 mM DTT, 2 mM EDTA and 2% sucrose—each at least 20 times of the volume. The modified protein was distributed into aliquots, frozen on dry ice and stored at −80° C. The biotinylated RORγ-LBD was subjected to mass spectrometric analysis to reveal the extent of modification by the biotinylation reagent. In general, approximately 95% of the protein had at least a single site of biotinylation and the overall extent of biotinylation followed a normal distribution of multiple sites ranged from one to five.
A biotinylated peptide corresponding to amino acid 676 to 700 ([…]) (SEQ ID NO:3)of the co-activator steroid receptor coactivator SRC1(2) was generated using similar method.
Biotinylated SRC1(2) solution was prepared by adding an appropriate amount of biotinylated SRC1(2) from the 100 uM stock solution to a buffer containing 10 mM of freshly added DTT from solid to give a final concentration of 40 nM. An appropriate amount of Europium labeled Streptavidin was then added to the biotinylated SRC1(2) solution in a tube to give a final concentration of 10 nM. The tube was inverted gently and incubated for 15 minutes at room temperature. […]

Assay [2] relates to IL-17A secreted from antiCD3/CD28 stimulated Peripheral Blood Mononuclear cells (PBMC). The experiment in a line: Peripheral Blood Mononucleocyte Cell Assay (PBMC Assay-IL-17). The class given is cell-based. Particulars: inhibition of IL-17A release, CD3/CD28 bead stimulated human PBMC, 48 hours; read-out: mean pIC50 (converted). The source says: Peripheral Blood Mononucleocyte Cell Assay (PBMC Assay-IL-17)
RORs (Retinoic Acid Related Orphan Receptors) are members of the class 1 nuclear receptor family. RORs regulate gene transcription by binding to specific DNA response element (RORE) as a monomer and have critical roles of in development, immunity, circadian rhythm, and cellular metabolism (recently reviewed by A Jetten, Nuclear Receptor Signaling, 2009, 7, 1-32) One member of this nuclear receptor family, RORγt, has been identified as a regulator of differentiation and development of IL-17-expressing human and mouse CD4+ T cells, so called Th17 cells which play a role in both host defence and inflammatory disorders. RORγt is also required for transcription of the genes encoding IL-17A and IL-17F in iNKT, NKT (Immunol 2009, 2(5), 383-392, J. Immunol, 2008, 180, 51(67), 5171-5171), γδTcells (J. Resp and Crit. Care Med 2010, 182(4), 464-476), CD8^+ Tcell (J Leukocyte Biol, 2007, 82(2), 354-360) and finally CD4-CD8-TCRαβ^+ T cells (J. Immunol. 2008, 181 8761-8766). Additional immune cells such as eosinophils, neutrophils and macrophages can also be source of IL17A in some allergic inflammation related to asthma (J Allergy Clin Immunol 2001, 108, 430-438; J. Immunol, 2008, 181, 6117-6124; Immunity, 2004, 21, 467-476), however, the link with RORγt has not yet been confirmed in the literature.
This assay is designed to measure levels of IL-17A secreted from antiCD3/CD28 stimulated frozen Peripheral Blood Mononuclear cells (PBMC) isolated from human blood with the aim of identifying inhibitors of IL-17A release.
• 1. Ensure no external endotoxin is present in media and reagents used in the assay. • 2. The compounds for screening are dispensed into a master plate at 10 mM top concentration which are serially diluted 1:3 across 11 points in DMSO, then 500 nl is transferred into a 384-well flat-bottomed Greiner plate to which 50 ul of cell suspension is added: for the single shot screening the highest concentration of compound is 10^−5M; for 11 point full curve dose response studies the highest concentration is […]. • Controls: • As a low control, DMSO (as supplied, for example, by VWR) (final concentration 1%) in column 6 (16 points). • As a high control, 5-(4-fluorophenyl)-2-ureidothiophene-3-carboxamide (obtainable from, for example, Sigma) at a final concentration of 10^−4 M in DMSO should be used in column 18 (16 points). • If the compounds dispensed earlier than the day of the assay, they should be kept at −20° C.
Protocol Step 2: Day 1: Thawing and Handing of PBMC • 1. Thaw PBMC in the vial using water bath (37° C.). […] Transfer the contents of the vial into 50 mL Falcon tube. • 3. Add 10 mL of Assay Media drop by drop to decrease the concentration of DMSO (as supplied, for example, by VWR) in the freezing media gradually. • 4. Spin down the cells in a centrifuge (1000 rpm-5 mins). • 5. Decant the supernatant. • 6. Re-suspend the cells in 10 mL of Assay Media. • 7. Transfer of 0.1 mL of suspension into Cedex counting tube. • 8. Add 0.9 mL of media to achieve volume of the suspension for counting up to 1 mL. Count the cells on Cedex using 1:10 dilution factor settings. • 9. Make the cell suspension at the concentration 8×10^5 cells/mL. to give a final number of 40,000 cells/well. Protocol Step 3: Day 1: Stimulation of PBMC with CD3/CD28 beads • 1. Add well mixed CD3/CD28 Dynabeads (as supplied, for example, by Dynal) to achieve ratio bead:cell=2:1 (i.e a dilution of 1 in 20). Mix thoroughly. • 2. Dispense the suspension into the 384 Assay Plates using Multidrop (50 ul per well). • If the volume of cell suspension is large, mix the suspension after dispensing into every other plate. • 3. Cover the plates with the lids and place them to the humidified incubator (37° C., 5% CO2) for 48 hours. Protocol Step 4: Day 2: MSD plates preparation • 1. […]

Regarding `Cc1ccc(N(CC(C)C)S(=O)(=O)c2ccc(OCc3c(C)noc3C)cc2)c(C)c1` [Product P24], the IC50 in assay [1] was at most 15.8 nM; in assay [2], at most 1000 nM.

As for `Cc1noc(C)c1COc1ccc(S(=O)(=O)N(CC(C)C)c2ccc(C(C)C)cc2)cc1` [Product P28], the IC50 in assay [1] is at most 15.8 nM; in assay [2], at most 1000 nM.

On to `Cc1noc(C)c1COc1ccc(S(=O)(=O)N(CC(C)C)c2ccc(Cl)cc2)cc1` [Product P30], for which the values for the IC50 in assay [1] and in assay [2] were at most 15.8 nM and at most 1000 nM, respectively.

`CCCc1ccc(N(CC(C)C)S(=O)(=O)c2ccc(OCc3c(C)noc3C)cc2)cc1` [Product P31]: the IC50 in assay [1] is at most 15.8 nM; in assay [2], at most 1000 nM.

Take `Cc1ccc(C(F)(F)F)cc1N(CC(C)C)S(=O)(=O)c1ccc(OCc2c(C)noc2C)cc1` [Product P33]: the results for the IC50 in assay [1] and in assay [2] were at most 15.8 nM and at most 1000 nM, respectively.

For `Cc1ccc(N(CC(C)C)S(=O)(=O)c2ccc(OCc3ccncc3)cc2)c(C)c1` [Product P98], the IC50 in assay [1] was at most 15.8 nM.

With `Cc1ccc(F)cc1N(CC(C)C)S(=O)(=O)c1ccc(OCc2ccncc2)cc1` [Product P104], in assay [1], the IC50 was at most 15.8 nM.

With `Cc1noc(C)c1COc1ccc(S(=O)(=O)N(CC(C)C)c2ccc(Cl)c(Cl)c2)cc1` [Product P114], the IC50 in assay [1] was at most 15.8 nM.

For `Cc1ccc(N(CC(C)C)S(=O)(=O)c2ccc(CCc3ccncc3)cc2)c(C)c1` [Product P140], the IC50 was at most 15.8 nM in assay [1] and at most 1000 nM in assay [2].

`Cc1ccc(N(CC(C)C)S(=O)(=O)c2ccc(OCCc3ccncc3)cc2)c(C)c1` [Product P141]: the IC50 in assay [1] is at most 15.8 nM.

In the case of `Cc1ccc(N(CC(C)C)S(=O)(=O)c2ccc(OCCc3c(C)noc3C)cc2)c(C)c1` [Product P142], the IC50 in assay [1] was at most 15.8 nM.

As to `Cc1ccc(N(CC(C)C)S(=O)(=O)c2ccc(OCC(O)c3ccncc3)cc2)c(C)c1` (centres unmarked) [Product P150, N-(2,4-dimethylphenyl)-4-(2-hydroxy-2-(pyridin-4-yl)ethoxy)-N-isobutylbenzenesulfonamide], the IC50 in assay [1] was at most 15.8 nM.

For `CCc1ccc(N(CC(C)C)S(=O)(=O)c2ccc(OCc3c(C)noc3C)cc2)cc1` [Product P160, 4-((3,5-dimethylisoxazol-4-yl)methoxy)-N-(4-ethylphenyl)-N-isobutylbenzenesulfonamide], the results for the IC50 in assay [1] and in assay [2] were at most 15.8 nM and at most 1000 nM, respectively.
